# Results taken from patent US20070060605A1, “Compositions and methods for inhibiting platelet activation and thrombosis” (priority 2001, published 2007).
# Columns and labels:
# platelets [1] = test: Platelet aggregation (aggregometer); format: cell-based, human; conditions: for IC50: Homo sapiens, Platelet
# Method: Platelet aggregation profiling is a standard methodology, generally performed with an instrument adapted for that express purpose, for example, a Platelet Aggregation Profiler (BioData, Horsham, Pa.). The assays can generally be performed according to the instructions of the manufacturer. As exemplary conditions, 400 μl of PRP are incubated with inhibitor for 15 minutes at room temperature. The sample is then incubated for 3 minutes at 37° C. in the Platelet Aggregation Profiler. The instrument is calibrated with platelet poor plasma serving as a blank. A baseline tracing is established by monitoring the light transmittance of PRP being stirred at 1200 rpm. Aggregation is initiated by the addition of SFLLR (200 μM) and the percent of platelet aggregation is measured by the change in light transmittance for 6 minutes following addition of SFLLR.
# platelets [2] = test: Agonist-induced platelet granule secretion / activation (P-selectin expression by flow cytometry; ADP/ATP release); format: cell-based, human; conditions: for IC50: Homo sapiens, Platelet
# Method: In order to monitor ATP release, a cocktail of 100 μM SFLLR (synthesized using solid phase Fmoc chemistry on an Applied Biosystems model 430A peptide synthesizer) and 3 mg/ml of luciferin/luciferase (Sigma, St. Louis, Mo.) in a volume of 10 μl is added to 20 μl of PRP. Samples are immediately analyzed for luminescence. Activated platelets supply the ATP necessary for luminescence of the luciferin/luciferase assay. Assays can be performed at high throughput through use of a microtiter plate system, e.g., 384-well plates and a Multidrop 384 (Thermo Labsystems, Helsinki), read with a high density imaging system, e.g., the Tundra system (Imaging Research, St. Catherine's, Ontario).
# In order to assay platelet activation by cell surface marker expression, fresh PRP is isolated from donors who have not ingested aspirin for two weeks prior to donation. PRP (40 μl) is incubated with known or suspected inhibitor in DMSO or DMSO alone for 15 min. The sample is then incubated with the indicated agonist (e.g., SFLLR) for 10 min. Following incubation of the sample with the indicated agonist, 10 μl of reaction mixture is transferred to 5 μl of phycoerythrin (PE)-conjugated AC 1.2 anti-P-selectin antibody (for assessment of P-selectin surface expression) or fluorescein isothiocyanate (FITC)-conjugated PAC-1 antibody (for assessment of GPIIbIIIa activation). PBS (500 μl) is added to the sample after a 20 min incubation and the platelets are analyzed immediately by flow cytometry. Flow cytometry can be performed using, for example, a Becton-Dickinson FACSCalibur flow cytometer or its equivalent. Fluorescent channels are set at logarithmic gain. Ten thousand particles are acquired for each sample. A 530/30 band pass filter is used for FL-1 fluorescence. A 585/42 band pass filter is used for FL-2 fluorescence. FITC is measured in the FL-1 channel and PE is measured in the FL-2 channel. Data are analyzed using, for example, CellQuest software on a Macintosh PowerPC, or their equivalents.
# Compounds were tested for the ability to inhibit agonist-induced ADP/ATP release from platelet dense granules using a luciferin-luciferase reporter system. In this assay, compounds were incubated with platelet-rich plasma (PRP) for 30 min. A cocktail of the platelet agonist and luciferin-luciferase was then added to the wells. Plates were immediately analyzed using a Tundra high density luminescence imager. […] As a control, compounds were also screened in a platelet-free assay for the ability to inhibit luciferin-luciferase upon exposure to ATP.
# Each of the compounds was tested for inhibition of platelet activation in response to the agonists SFLLR (a thrombin mimic), U46619 (a thromboxane A2 mimic), ADP and the phorbol ester PMA.
# Compounds were also tested by flow cytometry for the inhibition of SFLLR-induced GPIIbIIIa activation and P-selectin expression. In these experiments, freshly obtained PRP was prepared from healthy volunteers who had not ingested aspirin for two weeks prior to donation. Forty μl of PRP was incubated with inhibitor in DMSO or DMSO alone for 15 min. The sample was then incubated with the indicated agonist for 10 min. Following incubation of the sample with the indicated agonist, 10 μl of reaction mixture was transferred to 5 μl of PE-conjugated AC1.2 anti-P-selectin antibody (for assessment of P-selectin surface expression) or FITC-conjugated PAC-1 antibody (for assessment of GPIIbIIIa activation). PBS (500 μl) was added to the sample after a 20 min incubation and the platelets were analyzed immediately by flow cytometry. Flow cytometry was performed using a Becton-Dickinson FACSCalibur flow cytometer. Fluorescent channels were set at logarithmic gain. Ten thousand particles were acquired for each sample. A 530/30 band pass filter was used for FL-1 fluorescence. A 585/42 band pass filter was used for FL-2 fluorescence. FITC was measured in the FL-1 channel and PE was measured in the FL-2 channel.
compound,measurement,setting,value
CCCCCn1c2c(c(=N)c3ccccc31)CCC2 [JF081204{5C}],IC50,"platelets [1]; agonist U-46619, read-out: IC50 Platelet Aggregation Induced by U-46619",400 µM
same,IC50,"platelets [1]; agonist Collagen, read-out: IC50 Platelet Aggregation Induced by Collagen",> 200 µM
same,IC50,"platelets [1]; agonist Epinephrine, read-out: IC50 Platelet Aggregation Induced by Epinephrine",5 µM
same,IC50,"platelets [1]; agonist SFLLRN, read-out: IC50 Platelet Aggregation Induced by SFLLRN",2 µM
same,IC50,"platelets [1]; agonists SFLLRN, epinephrine, read-out: IC50 SFLLRN- and epinephrine-induced platelet aggregation",< 5 µM
same,Inhibition of U46619- and collagen-induced platelet aggregation,"platelets [1]; agonists U46619, collagen",not effective
same,"U46619-, A23187-, and PMA-induced P-selectin expression less potent than SFLLR",platelets [2],at least 150 fold
same,IC50,"platelets [2]; agonist A23187, read-out: IC50 P-Selectin Expression Induced by A23187",> 300 µM
same,IC50,"platelets [2]; agonist PMA, read-out: IC50 P-Selectin Expression Induced by PMA",300 µM
same,IC50,"platelets [2]; agonist SFLLRN, maximally stimulatory dose, read-out: IC50 P-Selectin Expression Induced by SFLLRN",2 µM
same,IC50,"platelets [2]; agonist SFLLRN/SFLLR, human platelets, read-out: IC50 SFLLRN-induced P-selectin expression, flow cytometry",2 to 150 µM
same,IC50,"platelets [2]; agonist U46619, read-out: IC50 P-Selectin Expression Induced by U46619",400 µM
same,Potency in inhibiting SFLLRLN- and epinephrine-induced activation relative to other agonists,"platelets [2]; footnote, sentence cut off",#inhibit platelet activation induced by the indicated agonist is shown. The potency of this compound in inhibiting SFLLRLN- and epinephrine-induced activation was at least 100-fold greater than that o
"CC1CC(=O)NN=C1c1ccc(N)c([N+](=O)[O-])c1 (stereo not drawn) [6-(4-Amino-3-nitro-phenyl)-5-methyl-4,5-dihydro-2H-pyridazin-3-one]",SFLLR-induced platelet aggregation,platelets [1]; agonist SFLLR,potent inhibitor
same,ADP- and collagen-induced granule release less potent than SFLLR and U46619,platelets [2],at least 25 fold
same,ADP-induced responses inhibited less effectively than SFLLR and U46619 responses,platelets [2]; ADP vs SFLLR and U46619,approximately 20 fold
same,IC50,"platelets [2]; agonist ADP, read-out: IC50s of inhibition of platelet granule secretion induced with ADP",8 µM
same,IC50,"platelets [2]; agonists SFLLR and U-46619, read-out: IC50 SFLLR- and U-46619-induced activation",0.3 µM
same,IC50,"platelets [2]; agonist Collagen, read-out: IC50 collagen-induced platelet granule release",70 µM
same,Inhibition of PMA-induced platelet activation,platelets [2]; agonist PMA,did not inhibit
same,Inhibition of PMA-induced activation,"platelets [2]; agonist PMA, up to 1000 μM",No inhibition
